Experimental data from ChEMBL document CHEMBL5465560, “Selectivity Literature for EUbOPEN Chemogenomic Library” (2024).

What was measured:
[1] = target: Serine/threonine-protein kinase 26 (Homo sapiens, UniProt Q9P289); experiment: Selectivity interaction (KinomeScan (DiscoverX)) EUB0001049a STK26; conditions: at 1 µM
[2] = target: Ribosomal protein S6 kinase alpha-4 (Homo sapiens) (UniProt O75676); experiment: Selectivity interaction (KinaseProfiler screening (Millipore)) EUB0000601a RPS6KA4; conditions: at 3 µM
[3] = target: Calcium/calmodulin-dependent protein kinase type II subunit alpha (Homo sapiens, UniProt Q9UQM7); experiment: Selectivity interaction (ActivX KiNativ screen (kinase selectivity in THP-1 cell lysates)) EUB0000639a CAMK2A; type: subcellular; conditions: lysate
[4] = target: Tyrosine-protein kinase SYK (Homo sapiens, UniProt P43405); experiment: Selectivity interaction (ActivX KiNativ screen (kinase selectivity in THP-1 cell lysates)) EUB0000639a SYK; type: subcellular; conditions: lysate, at 1 µM
[5] = target: T1, Serine/threonine-protein kinase LATS1 (Homo sapiens) (UniProt O95835); experiment: Selectivity interaction (ActivX KiNativ screen (kinase selectivity in THP-1 cell lysates)) EUB0000639a LATS1; type: subcellular; conditions: lysate
T1 sequence (whole entry): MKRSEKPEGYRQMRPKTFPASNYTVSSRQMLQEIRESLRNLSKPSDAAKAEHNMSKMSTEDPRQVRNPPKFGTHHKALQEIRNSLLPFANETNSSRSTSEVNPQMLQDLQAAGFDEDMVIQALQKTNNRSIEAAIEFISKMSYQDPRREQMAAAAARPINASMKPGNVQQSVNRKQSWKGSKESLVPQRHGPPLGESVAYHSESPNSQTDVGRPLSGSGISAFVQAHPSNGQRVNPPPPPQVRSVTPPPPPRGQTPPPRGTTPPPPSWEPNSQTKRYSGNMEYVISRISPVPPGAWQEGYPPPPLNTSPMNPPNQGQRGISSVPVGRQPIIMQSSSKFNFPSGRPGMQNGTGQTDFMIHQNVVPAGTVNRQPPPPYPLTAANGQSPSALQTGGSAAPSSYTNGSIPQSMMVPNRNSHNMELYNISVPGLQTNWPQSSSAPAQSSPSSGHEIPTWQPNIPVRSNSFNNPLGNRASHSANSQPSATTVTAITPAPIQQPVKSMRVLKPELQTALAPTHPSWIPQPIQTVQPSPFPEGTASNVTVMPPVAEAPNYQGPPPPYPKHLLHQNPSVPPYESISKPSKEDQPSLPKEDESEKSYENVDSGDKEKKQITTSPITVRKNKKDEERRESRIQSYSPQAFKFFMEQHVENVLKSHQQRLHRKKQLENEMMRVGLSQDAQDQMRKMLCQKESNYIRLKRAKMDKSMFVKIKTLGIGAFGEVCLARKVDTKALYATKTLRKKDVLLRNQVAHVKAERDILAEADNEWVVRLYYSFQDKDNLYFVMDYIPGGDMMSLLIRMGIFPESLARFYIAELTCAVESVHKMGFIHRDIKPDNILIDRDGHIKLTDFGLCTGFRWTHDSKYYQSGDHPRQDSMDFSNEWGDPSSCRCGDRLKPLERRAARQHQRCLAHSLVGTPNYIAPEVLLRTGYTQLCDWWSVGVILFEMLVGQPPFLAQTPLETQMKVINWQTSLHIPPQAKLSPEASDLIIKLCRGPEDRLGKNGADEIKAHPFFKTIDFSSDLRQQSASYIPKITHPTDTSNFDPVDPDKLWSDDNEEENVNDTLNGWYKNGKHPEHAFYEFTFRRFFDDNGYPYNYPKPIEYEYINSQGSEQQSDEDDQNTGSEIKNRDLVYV

[6] = target: Calcium/calmodulin-dependent protein kinase type 1D (Homo sapiens) (UniProt Q8IU85); experiment: Selectivity interaction (KinomeScan (DiscoverX)) EUB0000595a CAMK1D; conditions: at 10 µM
[7] = target: Dual specificity tyrosine-phosphorylation-regulated kinase 1B (Homo sapiens, UniProt Q9Y463); experiment: Selectivity interaction (KinomeScan (DiscoverX)) EUB0000092b DYRK1B; conditions: at 10 µM
[8] = target: Serine/threonine-protein kinase pim-3 (Homo sapiens) (UniProt Q86V86); experiment: Selectivity interaction (Ambit KINOMEscan and KiNATiv profiling in Jurkat cells) EUB0000090b PIM3; type: cell-based; conditions: at 1 µM
[9] = target: T2, Phosphatidylinositol 5-phosphate 4-kinase type-2 gamma (Homo sapiens) (UniProt Q8TBX8); experiment: Selectivity interaction (Ambit KINOMEscan and KiNATiv profiling in Jurkat cells) EUB0000090b PIP4K2C; type: cell-based; conditions: at 1 µM
T2 sequence (whole entry): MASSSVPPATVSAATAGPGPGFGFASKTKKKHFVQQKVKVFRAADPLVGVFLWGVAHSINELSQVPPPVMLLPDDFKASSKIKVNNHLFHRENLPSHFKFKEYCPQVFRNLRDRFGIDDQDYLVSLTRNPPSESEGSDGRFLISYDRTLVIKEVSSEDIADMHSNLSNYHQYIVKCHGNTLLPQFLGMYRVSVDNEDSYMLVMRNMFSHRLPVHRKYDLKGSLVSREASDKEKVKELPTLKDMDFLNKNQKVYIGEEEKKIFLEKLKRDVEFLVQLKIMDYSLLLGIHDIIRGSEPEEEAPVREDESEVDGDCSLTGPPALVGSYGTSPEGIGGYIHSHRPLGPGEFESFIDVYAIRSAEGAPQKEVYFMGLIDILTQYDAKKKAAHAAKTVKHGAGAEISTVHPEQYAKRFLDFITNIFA

[10] = target: Serine/threonine-protein kinase RIO2 (Homo sapiens) (UniProt Q9BVS4); conditions: at 10 µM
[11] = target: Serine/threonine-protein kinase Chk1 (Homo sapiens, UniProt O14757); experiment: Selectivity interaction (Enzyme panel (AstraZeneca, AlphaScreen, functional assay)) EUB0000621a CHEK1
[12] = target: Serine/threonine-protein kinase SIK2 (Homo sapiens) (UniProt Q9H0K1); experiment: Selectivity interaction (Kinase panel (Z-LYTE Assay)) EUB0001632a SIK2; conditions: at 10 µM
Serine/threonine-protein kinase SIK2 (Homo sapiens), sequence (Q9H0K1 whole entry, looked up): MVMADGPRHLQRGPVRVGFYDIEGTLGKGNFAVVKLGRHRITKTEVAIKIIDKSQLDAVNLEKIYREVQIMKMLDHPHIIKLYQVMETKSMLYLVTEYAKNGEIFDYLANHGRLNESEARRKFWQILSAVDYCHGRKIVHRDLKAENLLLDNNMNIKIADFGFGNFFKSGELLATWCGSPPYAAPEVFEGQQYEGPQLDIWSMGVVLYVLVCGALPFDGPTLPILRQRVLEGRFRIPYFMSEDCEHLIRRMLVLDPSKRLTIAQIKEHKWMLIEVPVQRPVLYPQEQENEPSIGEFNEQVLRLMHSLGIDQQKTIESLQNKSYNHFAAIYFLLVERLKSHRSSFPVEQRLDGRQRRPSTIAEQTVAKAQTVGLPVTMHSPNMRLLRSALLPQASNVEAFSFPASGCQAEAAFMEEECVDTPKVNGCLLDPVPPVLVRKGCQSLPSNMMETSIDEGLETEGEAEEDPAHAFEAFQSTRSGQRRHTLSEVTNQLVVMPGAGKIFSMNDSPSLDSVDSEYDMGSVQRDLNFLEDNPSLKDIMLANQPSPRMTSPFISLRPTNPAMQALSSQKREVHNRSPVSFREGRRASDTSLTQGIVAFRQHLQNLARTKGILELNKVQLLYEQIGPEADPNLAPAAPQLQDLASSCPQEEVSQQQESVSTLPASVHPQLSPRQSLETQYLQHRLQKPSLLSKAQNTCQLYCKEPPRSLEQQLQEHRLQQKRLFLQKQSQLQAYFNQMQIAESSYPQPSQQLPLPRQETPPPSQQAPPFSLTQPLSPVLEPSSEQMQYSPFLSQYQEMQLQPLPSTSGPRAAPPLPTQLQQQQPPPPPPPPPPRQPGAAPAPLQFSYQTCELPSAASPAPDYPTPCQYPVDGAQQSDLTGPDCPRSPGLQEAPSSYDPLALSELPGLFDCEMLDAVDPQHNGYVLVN

Calcium/calmodulin-dependent protein kinase type II subunit alpha, sequence (Q9UQM7 whole entry): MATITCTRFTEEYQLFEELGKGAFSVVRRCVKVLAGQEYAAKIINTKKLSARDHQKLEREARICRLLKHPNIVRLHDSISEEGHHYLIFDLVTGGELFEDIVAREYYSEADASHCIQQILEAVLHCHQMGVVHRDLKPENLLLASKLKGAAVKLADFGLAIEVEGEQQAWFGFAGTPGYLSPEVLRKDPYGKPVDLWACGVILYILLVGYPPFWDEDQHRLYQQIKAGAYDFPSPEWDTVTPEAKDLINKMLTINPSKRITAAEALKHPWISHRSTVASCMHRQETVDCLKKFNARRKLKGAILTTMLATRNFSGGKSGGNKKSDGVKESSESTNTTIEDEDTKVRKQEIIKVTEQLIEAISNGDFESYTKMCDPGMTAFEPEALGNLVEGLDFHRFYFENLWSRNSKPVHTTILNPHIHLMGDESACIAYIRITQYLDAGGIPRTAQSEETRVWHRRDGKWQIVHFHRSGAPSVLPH
Dual specificity tyrosine-phosphorylation-regulated kinase 1B, sequence (Q9Y463 whole entry, looked up): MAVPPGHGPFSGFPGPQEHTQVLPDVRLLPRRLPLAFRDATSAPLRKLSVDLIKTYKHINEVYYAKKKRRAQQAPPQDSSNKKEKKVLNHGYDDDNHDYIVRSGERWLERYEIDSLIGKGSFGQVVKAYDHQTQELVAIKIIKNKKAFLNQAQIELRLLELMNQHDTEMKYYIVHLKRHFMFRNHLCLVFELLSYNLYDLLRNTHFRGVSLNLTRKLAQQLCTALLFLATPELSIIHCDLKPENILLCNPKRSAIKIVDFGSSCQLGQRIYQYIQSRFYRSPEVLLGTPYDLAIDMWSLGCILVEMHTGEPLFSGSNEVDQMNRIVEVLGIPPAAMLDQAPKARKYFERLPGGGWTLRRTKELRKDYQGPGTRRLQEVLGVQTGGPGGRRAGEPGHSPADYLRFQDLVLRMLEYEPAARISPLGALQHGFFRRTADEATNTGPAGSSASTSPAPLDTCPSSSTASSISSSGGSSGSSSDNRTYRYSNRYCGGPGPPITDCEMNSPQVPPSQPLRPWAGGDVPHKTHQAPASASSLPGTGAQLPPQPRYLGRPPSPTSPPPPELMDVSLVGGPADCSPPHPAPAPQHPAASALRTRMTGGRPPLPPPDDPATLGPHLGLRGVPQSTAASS
Serine/threonine-protein kinase Chk1, sequence (O14757 whole entry): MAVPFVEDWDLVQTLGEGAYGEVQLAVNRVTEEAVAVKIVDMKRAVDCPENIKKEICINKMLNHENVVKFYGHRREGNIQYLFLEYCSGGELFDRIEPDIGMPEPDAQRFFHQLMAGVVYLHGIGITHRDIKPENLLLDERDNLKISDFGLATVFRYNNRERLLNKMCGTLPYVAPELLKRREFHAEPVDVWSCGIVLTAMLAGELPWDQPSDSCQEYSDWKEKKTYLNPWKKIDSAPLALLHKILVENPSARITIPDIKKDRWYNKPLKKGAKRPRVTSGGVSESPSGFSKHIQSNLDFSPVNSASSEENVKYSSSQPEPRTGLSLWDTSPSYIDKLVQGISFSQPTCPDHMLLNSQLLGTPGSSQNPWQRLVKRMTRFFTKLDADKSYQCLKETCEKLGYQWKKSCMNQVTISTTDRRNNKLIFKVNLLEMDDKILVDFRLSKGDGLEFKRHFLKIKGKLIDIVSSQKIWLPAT
Serine/threonine-protein kinase 26, sequence (Q9P289 2-416 limits assumed): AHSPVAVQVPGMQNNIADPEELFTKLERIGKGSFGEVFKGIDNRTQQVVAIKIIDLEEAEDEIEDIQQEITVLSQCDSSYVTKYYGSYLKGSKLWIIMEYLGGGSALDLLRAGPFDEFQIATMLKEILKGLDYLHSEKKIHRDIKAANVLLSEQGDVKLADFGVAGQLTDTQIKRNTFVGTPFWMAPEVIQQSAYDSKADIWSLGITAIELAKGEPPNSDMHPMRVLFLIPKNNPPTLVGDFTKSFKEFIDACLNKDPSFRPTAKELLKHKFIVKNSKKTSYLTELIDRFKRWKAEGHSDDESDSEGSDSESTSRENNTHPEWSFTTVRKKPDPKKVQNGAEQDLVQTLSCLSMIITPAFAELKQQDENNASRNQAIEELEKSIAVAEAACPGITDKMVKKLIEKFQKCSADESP
Ribosomal protein S6 kinase alpha-4 (Homo sapiens), sequence (O75676 whole entry, looked up): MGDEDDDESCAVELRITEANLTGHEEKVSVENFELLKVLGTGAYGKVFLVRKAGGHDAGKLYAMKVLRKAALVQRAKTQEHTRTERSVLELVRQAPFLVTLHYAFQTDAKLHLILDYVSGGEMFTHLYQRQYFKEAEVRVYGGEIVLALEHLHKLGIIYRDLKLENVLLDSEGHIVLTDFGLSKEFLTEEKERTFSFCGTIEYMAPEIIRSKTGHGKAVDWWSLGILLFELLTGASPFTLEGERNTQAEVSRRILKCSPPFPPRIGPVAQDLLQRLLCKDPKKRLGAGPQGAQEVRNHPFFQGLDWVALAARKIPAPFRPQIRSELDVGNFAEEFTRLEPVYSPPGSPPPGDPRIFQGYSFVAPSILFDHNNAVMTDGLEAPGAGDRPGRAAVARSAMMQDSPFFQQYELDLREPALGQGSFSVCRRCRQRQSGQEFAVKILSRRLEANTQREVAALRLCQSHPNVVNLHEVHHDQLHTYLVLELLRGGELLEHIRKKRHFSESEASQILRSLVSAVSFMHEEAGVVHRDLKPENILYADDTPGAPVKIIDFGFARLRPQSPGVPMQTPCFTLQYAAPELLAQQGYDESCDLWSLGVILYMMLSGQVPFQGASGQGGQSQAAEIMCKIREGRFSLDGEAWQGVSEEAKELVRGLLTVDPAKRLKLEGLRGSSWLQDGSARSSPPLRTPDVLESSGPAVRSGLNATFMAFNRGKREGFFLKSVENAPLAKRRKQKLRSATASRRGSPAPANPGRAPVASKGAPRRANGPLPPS
Serine/threonine-protein kinase RIO2 (Homo sapiens), sequence (Q9BVS4 whole entry, looked up): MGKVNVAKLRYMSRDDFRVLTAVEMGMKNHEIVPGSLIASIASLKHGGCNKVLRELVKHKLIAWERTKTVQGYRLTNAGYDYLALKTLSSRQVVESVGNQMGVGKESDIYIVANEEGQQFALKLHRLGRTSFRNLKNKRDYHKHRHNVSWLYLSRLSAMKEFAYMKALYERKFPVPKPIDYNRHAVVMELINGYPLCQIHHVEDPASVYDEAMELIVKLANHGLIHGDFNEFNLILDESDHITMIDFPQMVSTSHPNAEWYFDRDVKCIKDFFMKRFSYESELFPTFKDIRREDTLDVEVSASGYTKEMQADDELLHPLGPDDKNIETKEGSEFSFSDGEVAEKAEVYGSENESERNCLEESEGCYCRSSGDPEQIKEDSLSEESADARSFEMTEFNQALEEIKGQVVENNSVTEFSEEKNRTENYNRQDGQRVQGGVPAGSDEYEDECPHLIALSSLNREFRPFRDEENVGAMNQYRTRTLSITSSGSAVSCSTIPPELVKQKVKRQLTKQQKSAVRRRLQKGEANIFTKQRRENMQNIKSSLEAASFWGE
Calcium/calmodulin-dependent protein kinase type 1D (Homo sapiens), sequence (Q8IU85 whole entry, looked up): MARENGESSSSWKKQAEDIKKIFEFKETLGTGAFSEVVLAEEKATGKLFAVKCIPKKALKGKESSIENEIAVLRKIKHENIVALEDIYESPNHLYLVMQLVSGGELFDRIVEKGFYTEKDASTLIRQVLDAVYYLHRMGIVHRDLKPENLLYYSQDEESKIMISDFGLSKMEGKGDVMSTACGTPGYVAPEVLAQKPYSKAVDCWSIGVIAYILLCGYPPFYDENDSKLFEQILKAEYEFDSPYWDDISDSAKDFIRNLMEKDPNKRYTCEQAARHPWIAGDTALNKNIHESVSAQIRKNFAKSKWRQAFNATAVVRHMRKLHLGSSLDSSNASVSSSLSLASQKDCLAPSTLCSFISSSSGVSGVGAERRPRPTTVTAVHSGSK

Q: With COc1cc(Nc2nc(C)cc(-c3cnn4nc(OC)ccc34)n2)cc(C(F)(F)F)c1 as the compound, how does the % of control [1] read?
A: 85%

Q: With CCc1cc(Nc2nccc(-c3c(-c4ccc(OC)c(C(=O)Nc5c(F)cccc5F)c4)nc4ccccn34)n2)c(OC)cc1N1CCC(N2CCN(S(C)(=O)=O)CC2)CC1 as the compound, how does the % of inhibition [2] read?
A: 55%

Q: What does the source list for CC[C@@H]1[C@H](F)C(=O)N[C@@H]1COc1nccc2cc(C(N)=O)c(OC)cc12 [ZIMLOVISERTIB]?
A: % of inhibition ([3]; at 0.01 µM): 3.3%; % of inhibition ([3]; at 0.04 µM): 16.7%; % of inhibition ([3]; at 0.2 µM): 6.9%; % of inhibition ([3]; at 1 µM): 25.1%; % of inhibition ([3]; at 5 µM): 56.2%; % of inhibition [4]: -0.8%; % of inhibition ([5]; at 0.01 µM): -5.5%; % of inhibition ([5]; at 0.04 µM): -23.7%; % of inhibition ([5]; at 0.2 µM): -87.3%; % of inhibition ([5]; at 1 µM): -76.3%; % of inhibition ([5]; at 5 µM): -29.4%

Q: How did the % of control [6] turn out when COCC(=O)NC/C=C/c1ccc2ncnc(Nc3ccc(Oc4ccc(C)nc4)c(C)c3)c2c1 [CP-724714] was run?
A: 87%

Q: For CCC(=O)N1CCN(c2ccc(-n3c(=O)ccc4cnc5ccc(-c6cnc7ccccc7c6)cc5c43)cc2C(F)(F)F)CC1, which % of control [7] is on record?
A: 87%

Q: CN(C)C/C=C/C(=O)Nc1ccc(C(=O)N2CCCC(Nc3ncc(Cl)c(-c4c[nH]c5ccccc45)n3)C2)cc1 (stereo not given) was tested. Which % of control [8] did it give?
A: 99%

Q: And the % of control [9]?
A: 91%

Q: What does the source list for Cc1cc([C@@H](C)Nc2ccccc2C(=O)O)c2nc(N3CCOCC3)cc(=O)n2c1 [AZD-6482]?
A: % of control [10]: 54%; IC50 [11]: > 1000 µM

Q: Which % of control [12] does the source give for Cn1cc(-n2cnc3c(NCc4nc5cc(Cl)c(Cl)cc5[nH]4)nc(N4CCOCC4)nc32)cn1 here?
A: 5.35%
